US20240360411A1, “METHODS AND COMPOSITIONS FOR INDUCING FETAL HEMOGLOBIN, MODULATING ERYTHROID CELL LINEAGES, AND PERTURBING MEGAKARYOCYTE LINEAGES” (FLAGSHIP PIONEERING INNOVATIONS VI, LLC, priority 2021, published 2024)

What was measured:
[1] = system: C57Bl/6J mice; assay: Carboplatin induced thrombocytopenia model (CIT), CBC and bone marrow flow cytometry; assay type: in vivo, mouse
Excerpt: Chemotherapy induced thrombocytopenia (CIT) was a major disease burden in cancer patients undergoing chemotherapy. CIT increases the risk of bleeding resulting in delay of chemotherapy and/or reduction in relative dose intensity (RDI), which has a major impact in overall outcomes to cancer treatment. Currently, there were no approved treatments besides platelet transfusions in severe CIT cases. Thrombopoietin (TPO) mimetics, such romiplostim, were being investigated as a possible new treatment to address CIT. Based on the ability to modulate megakaryocyte progenitors in vitro and healthy animals, murine models that replicate CIT were developed (Table 19.) To this end, the following chemotherapeutic compounds known to induced myelosuppression and thrombocytopenia in mouse and humans were selected to develop CIT models:
Carboplatin a cisplatin analog commonly used in the clinic to treat a diverse type of malignant tumors. Carboplatin works by cross-linking to DNA resulting in DNA damage and decreased tumor burden. In addition, carboplatin also leads to bone marrow myelosuppression including transient thrombocytopenia in both human and mice.
Healthy C57Bl/6J mice were treated with a single dose of carboplatin via intraperitoneal injection (60 or 100 mg/kg) (FIG. 16A). Complete blood count (CBC), specifically changes in platelet number were measured using a blood analyzer (Heska HT5) at baseline Day 0 (baseline), Day 9, Day 16 and Day 21. In addition, bone marrowwas harvested at 24 hrs, 48 hrs, 9 days and 21 days post-carboplatin injection to characterize changes in the hematopoietic stem cells compartment, and changes in megakaryocyte compartment. […] Analysis of the bone marrow hematopoietic compartments was performed using flow cytometry as described in Example 14.

[2] = system: sickle cell patient; conditions: sickle cell patient treated with hydroxyurea; Mundee et al.; cited from earlier work
[3] = single intraperitoneal dose, 60 or 100 mg/kg, day post-injection

N.N.O=C([O-])C1(C(=O)[O-])CCC1.[Pt+2] [carboplatin]
bone marrow hematopoietic compartments (early Mkps, mature megakaryocytes) ([1]; flow cytometry 24 hrs, 48 hrs, 9 days, 21 days post-carboplatin injection, FIG. 17A, 17B): dynamic loss and recovery of distinct populations | tolerability ([1]; single intraperitoneal dose, 60 or 100 mg/kg): tolerated the treatment | blood platelets (change in platelet number) ([1]; single intraperitoneal dose, 60 or 100 mg/kg, FIG. 16B): decrease of blood platelets in a dose dependent manner | full recovery of platelet number [1, 3]: ≤ 21 days | nadir of blood platelets [1, 3]: 9 days

NC(=O)NO [hydroxyurea]
mean % F+ cells [2]: 54.1%±8.5% | mean % HbF [2]: 15.8%±2.0%
